Results on one compound are retold here after patent US20250179024A1, “AMYLOID AND ASSOCIATED PATHOLOGY MODULATORS AND METHODS THEREOF” (Jawaharlal Nehru Centre for Advanced Scientific Research, priority 2022, published 2025).

What all share (format): cell-based
One data set has as its system TNFα. The data set can be described thus: Western blot of TNFα in C6 microglia. Conditions: LPS 500 ng/mL, Aβ 5 μM, compound 10 μM; Aβ alone 2.35 fold. How it is done: Western blot analysis was performed to analyse the changes in the protein levels from cell lysates. SH-SY5Y and C6 cells were cultured to 80% confluence in T25 flask, trypsinised and seed into 12 well plate. The cells were cultured for 30 h and then treated with LPS (500 ng/mL) in low serum media for 6 h. Then the cells were treated with Aβ42 (5 μM) alone and with NMIs (M3) (10 μM) for 18 h. The cells were harvested by trypsinisation and the protein was extracted in RIPA lysis buffer with protease inhibitor cocktail (1×). Briefly cells were washed with dPBS and lysed in […] of RIPA lysis buffer with gentle shaking in 4° C. for 30 min. Then the cells were centrifuged at 16000 g for 20 min and the supernatant containing protein was collected and quantified by Bradford assay. The protein lysate was subjected to SDS-PAGE (12% resolving gel) and transferred to PVDF membrane. The blot paper was blocked with 5% skim milk powder for 1 h at room temperature and then washed thrice with TBST. The blots were incubated with primary antibodies for 20 h at 4° C. The blots were washed thrice with TBST for 5 min and then incubated with anti-rabbit HRP-conjugated secondary antibodies for 1 h at room temperature. […] All the western blots were quantified by using ImageJ, data was plotted and analysed by GraphPad prism5. […]
For orientation: A western blot detects proteins with antibodies after separation by electrophoresis.

For the next data set, the system named is NF-kβ. The data set is described as follows: Western blot of NF-kβ in C6 microglia. Conditions: LPS 500 ng/mL, Aβ 5 μM, compound 10 μM; Aβ alone 2.62 fold. As to the method: Western blot analysis was performed to analyse the changes in the protein levels from cell lysates. SH-SY5Y and C6 cells were cultured to 80% confluence in T25 flask, trypsinised and seed into 12 well plate. The cells were cultured for 30 h and then treated with LPS (500 ng/mL) in low serum media for 6 h. Then the cells were treated with Aβ42 (5 μM) alone and with NMIs (M3) (10 μM) for 18 h. The cells were harvested by trypsinisation and the protein was extracted in RIPA lysis buffer with protease inhibitor cocktail (1×). Briefly cells were washed with dPBS and lysed in […] of RIPA lysis buffer with gentle shaking in 4° C. for 30 min. Then the cells were centrifuged at 16000 g for 20 min and the supernatant containing protein was collected and quantified by Bradford assay. The protein lysate was subjected to SDS-PAGE (12% resolving gel) and transferred to PVDF membrane. The blot paper was blocked with 5% skim milk powder for 1 h at room temperature and then washed thrice with TBST. […] All the western blots were quantified by using ImageJ, data was plotted and analysed by GraphPad prism5.
NF-kβ is a tangible drug target for neuroinflammation and AD. […] C6 microglia were primed with LPS (500 ng/mL) followed by Aβ (5 μM) treatment to induce inflammation, which was monitored by the change in NF-kβ levels in western blot analysis (FIG. 16F).

In the next data set the test system is Nrf2. The data set can be described thus: Nrf2 localisation by indirect immunofluorescence. Conditions: Aβ treated SH-SY5Y cells. As to the method: Cells were cultured in confocal dishes up to 70% confluence and then treated with Aβ alone and with NMIs (M3), and subjected to immunofluorescence. The cells were washed twice with dPBS and then fixed with 4% paraformaldehyde for 15 min. The cells were then washed twice with dPBS for 5 min followed by treatment with permeabilization buffer (dPBS with 0.1% Triton X-100) for 10 min. The permeabilization buffer was aspirated and rinses with dPBS twice for 5 min. The samples were blocked with 10% goat serum in dPBS for 30 min at room temperature. The blocking solution was aspirated and then was treated with primary antibody (Nrf2/Iba1) with desired dilution in 4° C. with gentle shaking overnight. The samples were then washed with dPBS thrice for 5 min each and treated with Alexa Fluor-488 conjugated secondary antibody for 1 h in room temperature. The cells were washed with dPBS thrice and counterstain with DAPI (1 μM) for 10 min and imaged using confocal microscope.
M3 with in vitro antioxidant activity and in cellulo ROS quenching effect was expected to alleviate oxidative stress and modulate Nrf2 response. The effect of M3 on Nrf2 localisation in Aβ treated SH-SY5Y cells were assessed by indirect immunofluorescence staining study. […]

The subject of data set [1] is SH-SY5Y cells. The data set can be described thus: Cell rescue from Zn (II)-dependent Aβ toxicity (MTT). Conditions: Aβ 10 μM, Zn (II) 20 μM, NMIs 20 μM, 30 h; without compound ~61%. How it is done: (§1) Cell rescue from Aβ toxicity by NMIs were assessed in SH-SY5Y cells. The cells were seeded into 96 well plate at cell density of 25,000 cells per well and after 24 h the media was replaced with DMEM-F12 with low serum (2.5% FBS). After 6 h, cells were treated with Aβ (10 μM) alone and with NMIs (20 μM) in low serum media. Different concentrations of compound (10, 20 and 50 μM) were used to treat cells. For metal dependent studies, Aβ (10 μM) with metals (20 μM) in the absence and presence of NMIs (20 μM) was treated. The cells were incubated for 30 h and MTT assay was performed to calculate the percentage cell viability.
(§2) Further, the effect of concentration of compounds of the present disclosure on the cell rescue was assessed. […] The ability of NMIs to rescue cells from metal-dependent Aβ toxicity were assessed in the presence of Cu (II) and Zn (II). Cells were treated with Aβ (10 μM) along with metal ions (20 μM) and NMIs (20 μM) for 30 h. Aβ in the presence of Cu (II) reduced cell viability to ˜62% and M3 treatment had rescued cells with viability to 85% (FIG. 12C). Aβ with Zn (II) viability reduced to ˜61% and M3 treatment rescued cells by improving the viability to ˜79% (FIG. 12D). […] These in-cellulo experiments confirmed the ability of M3 to effectively rescue neuronal cells from metal-independent and dependent Aβ toxicity.

Data set [2] deals with SH-SY5Y cells. The data set can be described thus: MTT cytotoxicity assay. Conditions: 24 h, up to 200 μM. How it is done:
The SH-SY5Y cells were seeded onto 96 well plates at cell density of 25,000 cells per well and incubated. After 24 h cells were treated with different concentration of compounds (10, 20, 50, 100 and 200 μM) and incubated. After 24 h MTT (5 mg/mL) was added to the cells and incubated for 3 h, removed media and DMSO/Methanol (1:1) solution added to dissolve formazan crystals. The absorbance was recorded at 570 nm and the percentage cell viability was calculated with respect to control cells treated with vehicle (DMSO).
NMIs modulated metal-independent and dependent Aβ aggregation, reduced ROS in vitro and in cellulo, and rescue cells from oxidative stress. The biocompatibility, the cytotoxicity of compounds of the present disclosure to neuronal cells were evaluated by MTT assay. SH-SY5Y cells were treated with different concentrations of modulators (NMIs) for 24 h and performed MTT assay to determine the cell viability.

Data set [3] concerns SH-SY5Y cells. The data set can be described thus: Cell rescue from Cu (II)-dependent Aβ toxicity (MTT). As to the method:
as §1, §2

Broadly, the cell viability is a per cent measure of how many cells are alive, often set against a control. The low end stands for more harm to the cells, the high end for less harm to the cells.

Take `O=C1c2cccc3c(N(Cc4ccccn4)Cc4ccccn4)ccc(c23)C(=O)N1CCc1ccc(O)c(O)c1` [M3, 6-(bis(pyridin-2-ylmethyl)amino)-2-(3,4-dihydroxyphenethyl)-1H-benzo[de]isoquinoline-1,3(2H)-dione]: the “TNFα level in comparison to control” value in the data set on TNFα was 1.47 fold. The “NF-kβ level compared to control” value in the data set on NF-kβ worked out at 1.78 fold. The “translocation of Nrf2 to the nucleus” value in the data set with Nrf2 is “reduced the translocation of Nrf2 to the nucleus”. For the same compound, the cell viability is recorded as roughly 79% with SH-SY5Y cells [1]; 85% in the data set with SH-SY5Y cells [3] (Aβ 10 μM, Cu (II) 20 μM, NMIs 20 μM, 30 h, without compound ~62%); 86% with SH-SY5Y cells [3] (Cu (II)-dependent Aβ toxicity, higher concentration 50 µM, FIG. 13). In addition, the cytotoxicity entry with SH-SY5Y cells [2] is “minimal toxicity”.
